Values quoted from earlier work as cited in US10842883B2, “Aqueous oral solutions of steroid hormones and hydroxypropyl-β-cyclodextrin with optimised bioavailability” (ALTERGON S.A., priority 2012, dated 2020).

Conditions: Gould et al., Food Chem. Toxicol. 43 (2005)

CC(O)COC[C@H]1O[C@@H]2O[C@H]3[C@H](O)[C@@H](O)[C@@H](O[C@H]4[C@H](O)[C@@H](O)[C@@H](O[C@H]5[C@H](O)[C@@H](O)[C@@H](O[C@H]6[C@H](O)[C@@H](O)[C@@H](O[C@H]7[C@H](O)[C@@H](O)[C@@H](O[C@H]8[C@H](O)[C@@H](O)[C@@H](O[C@H]1[C@H](O)[C@H]2O)O[C@@H]8COCC(C)O)O[C@@H]7COCC(C)O)O[C@@H]6COCC(C)O)O[C@@H]5COCC(C)O)O[C@@H]4COCC(C)O)O[C@@H]3COCC(C)O (stereo partly drawn) [hydroxypropyl-β-cyclodextrin]
fraction absorbed after oral administration: about 5%
